Assay results: patent publication US10231453B2, “5-substituted imidazole derivatives” (BAYER CROPSCIENCE AKTIENGESELLSCHAFT, priority 2015, dated 2019)

Key:
[1] = Measurement of LogP values by HPLC on reversed phase columns (EEC directive 79/831 Annex V.A8); assay type: physicochemical; conditions: method [a]: LC-UV, acidic range, 0.1% formic acid in water and acetonitrile as eluent
Description: Measurement of Log P values was performed as outlined above.

[2] = tested on: Puccinia recondita; test: In vivo preventive test on Puccinia recondita (brown rust on wheat), Examples C and R3; conditions: Puccinia recondita, 264 h, Example R3, wheat, preventive spray, evaluated 11 days after inoculation, read-out: Efficacy in %
[3] = tested on: Septoria tritici; test: In vivo preventive test on Septoria tritici (leaf spot on wheat), Examples E, Q3 and R5; conditions: Zymoseptoria tritici, 576 h, Example R5, wheat, preventive spray, evaluated 24 days after inoculation, read-out: Efficacy in %
[4] = tested on: Sphaerotheca fuliginea; test: In vivo preventive test on Sphaerotheca fuliginea (powdery mildew on cucurbits), Examples F and R6; conditions: Podosphaera fuliginea, 360 h, Example R6, gherkin, preventive spray, evaluated 15 days after inoculation, read-out: Efficacy in %
[5] = tested on: Uromyces appendiculatus; test: In vivo preventive test on Uromyces appendiculatus (bean rust), Examples G and R7; conditions: 264 h, Example R7, bean, preventive spray, evaluated 11 days after inoculation, read-out: Efficacy in %

In the case of `N#Cc1cncn1CC(O)(Cc1ccncc1F)C1(Cl)CC1` (stereo not drawn) [Example I-163], the chromatographic logP ([1]; Table 1) is reported as 1.62.

For `N#Cc1cncn1CC(O)(Cc1ccnnc1Cl)C1(Cl)CC1` (stereo not drawn) [Example I-168], the chromatographic logP ([1]; Table 1) was 1.59.

`O=C(Cn1cncc1Cl)C1(Cl)CC1` [XVII-1, 1-(1-chlorocyclopropyl)-2-(5-chloro-1H-imidazol-1-yl)ethanone] gave a chromatographic logP ([1]; Table 2, compounds of formula (XVII)) of 0.75.

Work on `OC(Cc1ccccc1Cl)(Cn1cnc(Br)c1)C1(Cl)CC1` (stereo not drawn) [drawing 87] yielded a pest or weed control at 100 ppm [2] of 75% and a pest or weed control at 500 ppm [2] of 81%.

For `Cc1cn(CC(O)(Cc2ccccc2Cl)C2(Cl)CC2)cn1` (stereo not drawn) [drawing 89], the pest or weed control at 100 ppm [2] was 29% and the pest or weed control at 500 ppm [2] was 86%.

For `N#Cc1cn(CC(O)(Cc2ccccc2Cl)C2(Cl)CC2)cn1` (stereo not drawn) [drawing 91], the pest or weed control at 100 ppm [2] was 0% and the pest or weed control at 500 ppm [2] was 83%.

In the case of `C#Cc1cn(CC(O)(Cc2ccccc2F)C2(Cl)CC2)cn1` (stereo not drawn) [drawing 93], the pest or weed control at 100 ppm [2] is reported as 0% and the pest or weed control at 500 ppm [2] is reported as 13%.

Work on `OC(Cc1ccccc1F)(Cn1cnc(Cl)c1)C1(Cl)CC1` (stereo not drawn) [drawing 95] yielded a pest or weed control at 100 ppm [2] of 0% and a pest or weed control at 500 ppm [2] of 33%.

Compound `OC(Cc1ccccc1F)(Cn1ccnc1Cl)C1(Cl)CC1` (stereo not drawn) [drawing 96] has a pest or weed control at 100 ppm [2] of 0% and a pest or weed control at 500 ppm [2] of 0%.

Compound `N#Cc1cn(CC(O)(Cc2ccccc2F)C2(Cl)CC2)cn1` (stereo not drawn) [drawing 104] has a pest or weed control at 100 ppm [2] of 11% and a pest or weed control at 500 ppm [2] of 78%.

Work on `OC(Cc1ccccc1Cl)(Cn1cnc(Br)c1)C1(Cl)CC1` (stereo not drawn) [drawing 123] yielded a pest or weed control at 100 ppm [3] of 75% and a pest or weed control at 500 ppm [3] of 83%.

`Cc1cn(CC(O)(Cc2ccccc2Cl)C2(Cl)CC2)cn1` (stereo not drawn) [drawing 125] gave a pest or weed control at 100 ppm [3] of 17% and a pest or weed control at 500 ppm [3] of 33%.

`N#Cc1cn(CC(O)(Cc2ccccc2Cl)C2(Cl)CC2)cn1` (stereo not drawn) [drawing 127] showed a pest or weed control at 100 ppm [3] of 44% and a pest or weed control at 500 ppm [3] of 78%.

In the case of `C#Cc1cn(CC(O)(Cc2ccccc2F)C2(Cl)CC2)cn1` (stereo not drawn) [drawing 129], the pest or weed control at 100 ppm [3] is reported as 63% and the pest or weed control at 500 ppm [3] is reported as 63%.

With `OC(Cc1ccccc1F)(Cn1cnc(Cl)c1)C1(Cl)CC1` (stereo not drawn) [drawing 131] the pest or weed control at 100 ppm [3] was 0% and the pest or weed control at 500 ppm [3] was 93%.

`OC(Cc1ccccc1F)(Cn1ccnc1Cl)C1(Cl)CC1` (stereo not drawn) [drawing 132] showed a pest or weed control at 100 ppm [3] of 20% and a pest or weed control at 500 ppm [3] of 96%.

Compound `N#Cc1cn(CC(O)(Cc2ccccc2F)C2(Cl)CC2)cn1` (stereo not drawn) [drawing 140] has a pest or weed control at 100 ppm [3] of 14% and a pest or weed control at 500 ppm [3] of 86%.

Work on `OC(Cc1ccccc1Cl)(Cn1cnc(Br)c1)C1(Cl)CC1` (stereo not drawn) [drawing 142] yielded a pest or weed control at 100 ppm [4] of 20% and a pest or weed control at 500 ppm [4] of 30%.

For `Cc1cn(CC(O)(Cc2ccccc2Cl)C2(Cl)CC2)cn1` (stereo not drawn) [drawing 144], the pest or weed control at 100 ppm [4] was 0% and the pest or weed control at 500 ppm [4] was 30%.

Compound `C#Cc1cn(CC(O)(Cc2ccccc2F)C2(Cl)CC2)cn1` (stereo not drawn) [drawing 146] has a pest or weed control at 100 ppm [4] of 0% and a pest or weed control at 500 ppm [4] of 60%.

With `OC(Cc1ccccc1F)(Cn1cnc(Cl)c1)C1(Cl)CC1` (stereo not drawn) [drawing 148] the pest or weed control at 100 ppm [4] was 60% and the pest or weed control at 500 ppm [4] was 98%.

Work on `OC(Cc1ccccc1F)(Cn1ccnc1Cl)C1(Cl)CC1` (stereo not drawn) [drawing 149] yielded a pest or weed control at 100 ppm [4] of 0% and a pest or weed control at 500 ppm [4] of 78%.

In the case of `N#Cc1cn(CC(O)(Cc2ccccc2F)C2(Cl)CC2)cn1` (stereo not drawn) [drawing 157], the pest or weed control at 100 ppm [4] is reported as 95% and the pest or weed control at 500 ppm [4] is reported as 95%.

With `OC(Cc1ccccc1Cl)(Cn1cnc(Br)c1)C1(Cl)CC1` (stereo not drawn) [drawing 159] the pest or weed control at 100 ppm [5] was 56% and the pest or weed control at 500 ppm [5] was 47%.

`Cc1cn(CC(O)(Cc2ccccc2Cl)C2(Cl)CC2)cn1` (stereo not drawn) [drawing 161] showed a pest or weed control at 100 ppm [5] of 0% and a pest or weed control at 500 ppm [5] of 100%.

In the case of `N#Cc1cn(CC(O)(Cc2ccccc2Cl)C2(Cl)CC2)cn1` (stereo not drawn) [drawing 163], the pest or weed control at 100 ppm [5] is reported as 25% and the pest or weed control at 500 ppm [5] is reported as 50%.

In the case of `C#Cc1cn(CC(O)(Cc2ccccc2F)C2(Cl)CC2)cn1` (stereo not drawn) [drawing 165], the pest or weed control at 100 ppm [5] is reported as 0% and the pest or weed control at 500 ppm [5] is reported as 0%.

`OC(Cc1ccccc1F)(Cn1cnc(Cl)c1)C1(Cl)CC1` (stereo not drawn) [drawing 167] gave a pest or weed control at 100 ppm [5] of 0% and a pest or weed control at 500 ppm [5] of 0%.

Compound `OC(Cc1ccccc1F)(Cn1ccnc1Cl)C1(Cl)CC1` (stereo not drawn) [drawing 168] has a pest or weed control at 100 ppm [5] of 0% and a pest or weed control at 500 ppm [5] of 0%.

`N#Cc1cn(CC(O)(Cc2ccccc2F)C2(Cl)CC2)cn1` (stereo not drawn) [drawing 176] gave a pest or weed control at 100 ppm [5] of 25% and a pest or weed control at 500 ppm [5] of 56%.
